Test results: patent US8084486B2, “Substituted arylpyrazoles” (Pfizer Limited, priority 2003, dated 2011)

System: Ctenocephalides felis
Test: flea membrane feed screen
Parameters: species or system Ctenocephalides felis (cat flea)
Conditions: at 30 μg/ml
Procedure: The flea membrane feed screen is used to measure the biological activities of the compounds claimed. The assay involves in vitro testing against Ctenocephalides felis conducted according to the following general procedure.
Fleas are cultured in vitro using dog blood. 25-30 adult Ctenocephalides felis (cat flea) were collected and placed in a test chamber (50 ml polystyrene tube with fine nylon mesh sealing the end). Citrated dog blood was prepared by adding aqueous sodium citrate solution (10 ml, 20% w/v, 20 g sodium citrate in 100 ml water) to dog blood (250 ml). Test compounds were dissolved in dimethylsulfoxide to give a working stock solution of 4 mg/ml. The stock solution (12.5 μl) was added to citrated dog blood (5 ml) to give an initial test concentration of 10 μg/ml. For testing at 30 μg/ml, working stock solutions of 12 mg/ml were prepared.
Citrated dog blood containing the test compound (5 ml, 10 μg/ml) was placed into a plastic petri dish lid, which was kept at 37° C. on a heated pad. Parafilm was stretched over the open top to form a tight membrane for the fleas to feed through. The test chamber containing the fleas was placed carefully onto the parafilm membrane and the fleas commenced feeding. […]
The fleas were observed and the percentage of fleas killed recorded. […]

Structure (SMILES): N#Cc1nn(-c2c(Cl)cc(C(F)(F)F)cc2Cl)c(N)c1C1CC1(Br)Br (stereo not shown) [5-amino-3-cyano-4-(2,2-dibromocyclopropyl)-1-(2,6-dichlorophenyl-4-trifluoromethyl-)pyrazole]
- activity in the ED80 flea screen: inactive
